According to patent US7138361B2, “Herbicidal heterocycles” (E. I. du Pont de Nemours and Company, priority 2000, dated 2006):

Legend:
Assay type in all cases: in vivo
[1] = test system: woolly cupgrass (Eriochloa villosa); experiment: Test C preemergence; conditions: for Plant response rating (0 to 100), Cupgrass, Woolly: visual evaluation after 12 to 14 days
How it was run: (§1)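 Herbicidal effect is a visual 0–100 score (100 = complete control) assigned versus untreated plants, 12 to 14 days after spraying in the greenhouse. Test compounds were applied in a non-phytotoxic, surfactant-containing solvent.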

[2] = test system: johnsongrass (Sorghum halepense); experiment: Test C preemergence; conditions: for Plant response rating (0 to 100), Johnsongrass: visual evaluation after 12 to 14 days
How it was run: as §1

[3] = test system: velvetleaf (Abutilon theophrasti); experiment: Test C preemergence; conditions: for Plant response rating (0 to 100), Velvetleaf: visual evaluation after 12 to 14 days
How it was run: as §1

[4] = test system: pigweed (Amaranthus retroflexus); experiment: Test C preemergence; conditions: for Plant response rating (0 to 100), Pigweed: visual evaluation after 12 to 14 days
How it was run: as §1

[5] = test system: Sunflower; experiment: Test C preemergence
[6] = test system: Surinam grass (Brachiaria decumbens); experiment: Test C preemergence; conditions: for Plant response rating (0 to 100), Surinam grass: visual evaluation after 12 to 14 days
How it was run: as §1

[7] = test system: Nightshade; experiment: Test C preemergence
[8] = test system: cocklebur (Xanthium strumarium); experiment: Test C preemergence; conditions: for Plant response rating (0 to 100), Cocklebur: visual evaluation after 12 to 14 days
How it was run: as §1

[9] = test system: soybean (Glycine max); experiment: Test C preemergence; conditions: for Plant response rating (0 to 100), Soybean: visual evaluation after 12 to 14 days
How it was run: as §1

[10] = test system: lambsquarters (Chenopodium album); experiment: Test C preemergence; conditions: for Plant response rating (0 to 100), Lambsquarters: visual evaluation after 12 to 14 days
How it was run: as §1

[11] = test system: giant foxtail (Setaria faberii); experiment: Test C preemergence
How it was run: as §1

[12] = test system: bermudagrass (Cynodon dactylon); experiment: Test C preemergence; conditions: for Plant response rating (0 to 100 where 0 is no effect and 100 is complete control), Bermudagrass: visual evaluation after 12 to 14 days
How it was run: as §1

[13] = test system: corn (Zea mays); experiment: Test C preemergence; conditions: for Plant response rating (0 to 100), Corn: visual evaluation after 12 to 14 days
How it was run: as §1

[14] = test system: kochia (Kochia scoparia); experiment: Test C preemergence; conditions: for Plant response rating (0 to 100), Kochia: visual evaluation after 12 to 14 days
How it was run: as §1

[15] = test system: common ragweed (Ambrosia elatior); experiment: Test C preemergence; conditions: for Plant response rating (0 to 100), Ragweed, Common: visual evaluation after 12 to 14 days
How it was run: as §1

[16] = test system: Sunflower; experiment: Test C preemergence; conditions: visual evaluation after 12 to 14 days
[17] = test system: crabgrass (Digitaria sanguinalis); experiment: Test B postemergence; conditions: 13 to 15 days
How it was run: (§2)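 Post-treatment, species sat 13–15 days under greenhouse conditions before visual scoring against controls, 0 (no effect) through 100 (complete control). Application preemergence to sown seeds or postemergence at 1- to 4-leaf stage, using a non-phytotoxic solvent/surfactant formulation.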

[18] = test system: cocklebur (Xanthium strumarium); experiment: Test B postemergence; conditions: 13 to 15 days
How it was run: as §2

[19] = test system: lambsquarters (Chenopodium album); experiment: Test B postemergence; conditions: 13 to 15 days
How it was run: as §2

[20] = test system: wild oat (Avena fatua); experiment: Test B postemergence; conditions: 13 to 15 days
How it was run: as §2

[21] = Preemergence, Rate 500 g/ha, scale 0 to 100
[22] = Rate 62 g/ha, scale 0 to 100, 0 no effect, 100 complete control
[23] = preemergence, Rate 125 g/ha, scale 0 to 100, 0 no effect, 100 complete control
[24] = Rate 125 g/ha, scale 0 to 100, 0 no effect, 100 complete control
[25] = Rate 125 g/ha, scale 0 (no effect) to 100 (complete control)
[26] = Rate 500 g/ha, scale 0 to 100, 0 is no effect, 100 is complete control
[27] = preemergence, Rate 62 g/ha, scale 0 to 100
[28] = preemergence, Rate 250 g/ha, scale 0 to 100, 0 no effect, 100 complete control

With `CC(C)(C)c1ccn(C2CCN(c3ccc(Cl)c(Br)c3)C2=O)n1` (stereo not drawn) [Compound 56] the “Plant response rating, Cupgrass, Woolly” value [1, 21] was 70, the “Plant response rating, Cupgrass, Woolly” value [1, 22] was 0 and the “Plant response rating (0 to 100), Cupgrass, Woolly” value ([1]; preemergence, Rate 250 g/ha) was 0. The “Plant response rating, Cupgrass, Woolly” value [1, 23] was 0, the “Plant response rating, Johnsongrass” value [2, 21] was 0 and the “Plant response rating, Johnsongrass” value [2, 22] was 0. For the same compound, the “Plant response rating (0 to 100), Johnsongrass” value ([2]; preemergence, Rate 250 g/ha) was 0, the “Plant response rating, Johnsongrass” value [2, 23] was 0 and the “Plant response rating, Velvetleaf” value [3, 21] was 20. The “Plant response rating (0 to 100), Velvetleaf” value ([3]; preemergence, Rate 250 g/ha) was 0, the “Plant response rating, Velvetleaf” value [3, 23] was 0 and the “Plant response rating, Pigweed” value [4, 21] was 100. For the same compound, the “Plant response rating (0 to 100), Pigweed” value ([4]; preemergence, Rate 250 g/ha) was 0, the “Plant response rating, Pigweed” value [4, 23] was 90 and the “Plant response rating, Sunflower” value ([5]; Rate 500 g/ha, scale 0 to 100) was 0. The “Plant response rating, Surinam grass” value [6, 21] was 0, the “Plant response rating, Surinam grass” value [6, 22] was 0 and the “Plant response rating (0 to 100), Surinam grass” value ([6]; preemergence, Rate 250 g/ha) was 0. The “Plant response rating, Surinam grass” value [6, 23] was 0, the “Plant response rating, Nightshade” value ([7]; Rate 62 g/ha; scale 0 to 100, 0 no effect, 100 complete control) was 0 and the “Plant response rating, Nightshade” value [7, 24] was 0. The “Plant response rating, Nightshade” value ([7]; Rate 500 g/ha, scale 0 to 100) was 20, the “Plant response rating, Cocklebur” value [8, 21] was 100 and the “Plant response rating, Cocklebur” value [8, 22] was 0. For the same compound, the “Plant response rating (0 to 100), Cocklebur” value ([8]; preemergence, Rate 250 g/ha) was 0, the “Plant response rating, Cocklebur” value [8, 23] was 0 and the “Plant response rating, Soybean” value [9, 21] was 0. The “Plant response rating (0 to 100), Soybean” value ([9]; preemergence, Rate 250 g/ha) was 0, the “Plant response rating, Soybean” value [9, 23] was 0 and the “Plant response rating, Lambsquarters” value [10, 21] was 100. For the same compound, the “Plant response rating, Lambsquarters” value [10, 22] was 100, the “Plant response rating (0 to 100), Lambsquarters” value ([10]; preemergence, Rate 250 g/ha) was 100 and the “Plant response rating, Lambsquarters” value [10, 23] was 100. The “Plant response rating, Foxtail, Giant” value [11, 21] was 90, the “Plant response rating, Foxtail, Giant” value [11, 22] was 0 and the “Plant response rating, Foxtail, Giant” value [11, 23] was 0. The “Plant response rating, Bermudagrass” value [12, 21] was 100, the “Plant response rating, Bermudagrass” value [12, 22] was 40 and the “Plant response rating (0 to 100 where 0 is no effect and 100 is complete control), Bermudagrass” value ([12]; preemergence, Rate 250 g/ha) was 90. For the same compound, the “Plant response rating, Bermudagrass” value [12, 23] was 50, the “Plant response rating, Corn” value [13, 21] was 0 and the “Plant response rating, Corn” value [13, 22] was 0. The “Plant response rating (0 to 100), Corn” value ([13]; preemergence, Rate 250 g/ha) was 0, the “Plant response rating, Corn” value [13, 23] was 0 and the “Plant response rating, Kochia” value [14, 21] was 100. For the same compound, the “Plant response rating, Kochia” value [14, 22] was 50, the “Plant response rating (0 to 100), Kochia” value ([14]; preemergence, Rate 250 g/ha) was 100 and the “Plant response rating, Kochia” value [14, 23] was 70. For the same compound, the “Plant response rating, Ragweed, Common” value [15, 21] was 20, the “Plant response rating (0 to 100), Ragweed, Common” value ([15]; preemergence, Rate 250 g/ha) was 0 and the “Plant response rating, Ragweed, Common” value [15, 23] was 0. The “Plant response rating (0 to 100), Sunflower” value ([16]; Rate 250 g/ha) was 0, the “Plant response rating, Crabgrass” value [17, 25] was 0 and the “Plant response rating, Crabgrass” value [17, 26] was 0. For the same compound, the “Plant response rating, Cocklebur” value [18, 25] was 0, the “Plant response rating, Cocklebur” value [18, 26] was 0 and the “Plant response rating, Lambsquarters” value [19, 25] was 80. The “Plant response rating, Lambsquarters” value [19, 26] was 90, the “Plant response rating, Wild Oat” value [20, 25] was 0 and the “Plant response rating, Wild Oat” value [20, 26] was 0.

`CCCC(C)c1ccn(C2OCN(c3cccc(OC(F)(F)F)c3)C2=O)n1` (stereo not drawn) [Compound 91] was tested, and the “Plant response rating, Cupgrass, Woolly” value [1, 24] was 70, the “Plant response rating, Cupgrass, Woolly” value [1, 27] was 10 and the “Plant response rating (0 to 100), Cupgrass, Woolly” value ([1]; preemergence, Rate 500 g/ha) was 100. For the same compound, the “Plant response rating, Cupgrass, Woolly” value [1, 28] was 90, the “Plant response rating, Johnsongrass” value [2, 24] was 80 and the “Plant response rating, Johnsongrass” value [2, 27] was 20. For the same compound, the “Plant response rating (0 to 100), Johnsongrass” value ([2]; preemergence, Rate 500 g/ha) was 100, the “Plant response rating, Johnsongrass” value [2, 28] was 90 and the “Plant response rating, Velvetleaf” value [3, 24] was 0. The “Plant response rating, Velvetleaf” value [3, 27] was 0, the “Plant response rating (0 to 100), Velvetleaf” value ([3]; preemergence, Rate 500 g/ha) was 0 and the “Plant response rating, Velvetleaf” value [3, 28] was 0. For the same compound, the “Plant response rating, Pigweed” value [4, 24] was 0, the “Plant response rating, Pigweed” value [4, 27] was 0 and the “Plant response rating (0 to 100), Pigweed” value ([4]; preemergence, Rate 500 g/ha) was 100. The “Plant response rating, Pigweed” value [4, 28] was 0, the “Plant response rating, Sunflower” value [5, 24] was 0 and the “Plant response rating, Surinam grass” value [6, 24] was 30. For the same compound, the “Plant response rating, Surinam grass” value [6, 27] was 0, the “Plant response rating (0 to 100), Surinam grass” value ([6]; preemergence, Rate 500 g/ha) was 80 and the “Plant response rating, Surinam grass” value [6, 28] was 30. For the same compound, the “Plant response rating, Nightshade” value ([7]; Rate 62 g/ha, scale 0 to 100) was 0, the “Plant response rating, Nightshade” value ([7]; Rate 125 g/ha; scale 0 to 100, 0 no effect, 100 complete control) was 0 and the “Plant response rating, Nightshade” value ([7]; Rate 250 g/ha, scale 0 to 100, 0 no effect, 100 complete control) was 0. For the same compound, the “Plant response rating, Cocklebur” value [8, 24] was 0, the “Plant response rating, Cocklebur” value [8, 27] was 0 and the “Plant response rating (0 to 100), Cocklebur” value ([8]; preemergence, Rate 500 g/ha) was 10. For the same compound, the “Plant response rating, Cocklebur” value [8, 28] was 0, the “Plant response rating, Soybean” value [9, 24] was 0 and the “Plant response rating, Soybean” value [9, 27] was 0. For the same compound, the “Plant response rating (0 to 100), Soybean” value ([9]; preemergence, Rate 500 g/ha) was 0, the “Plant response rating, Soybean” value [9, 28] was 0 and the “Plant response rating, Lambsquarters” value [10, 24] was 100. For the same compound, the “Plant response rating, Lambsquarters” value [10, 27] was 90, the “Plant response rating (0 to 100), Lambsquarters” value ([10]; preemergence, Rate 500 g/ha) was 100 and the “Plant response rating, Lambsquarters” value [10, 28] was 100. For the same compound, the “Plant response rating, Foxtail, Giant” value [11, 24] was 30, the “Plant response rating, Foxtail, Giant” value [11, 27] was 10 and the “Plant response rating (0 to 100), Foxtail, Giant” value ([11]; preemergence, Rate 500 g/ha, visual evaluation after 12 to 14 days) was 100. For the same compound, the “Plant response rating, Foxtail, Giant” value [11, 28] was 30, the “Plant response rating, Bermudagrass” value [12, 24] was 100 and the “Plant response rating, Bermudagrass” value [12, 27] was 10. For the same compound, the “Plant response rating (0 to 100 where 0 is no effect and 100 is complete control), Bermudagrass” value ([12]; preemergence, Rate 500 g/ha) was 100, the “Plant response rating, Bermudagrass” value [12, 28] was 100 and the “Plant response rating, Corn” value [13, 24] was 0. For the same compound, the “Plant response rating, Corn” value [13, 27] was 0, the “Plant response rating (0 to 100), Corn” value ([13]; preemergence, Rate 500 g/ha) was 10 and the “Plant response rating, Corn” value [13, 28] was 10. The “Plant response rating, Kochia” value [14, 24] was 90, the “Plant response rating, Kochia” value [14, 27] was 20 and the “Plant response rating (0 to 100), Kochia” value ([14]; preemergence, Rate 500 g/ha) was 100. The “Plant response rating, Kochia” value [14, 28] was 90, the “Plant response rating, Ragweed, Common” value [15, 24] was 0 and the “Plant response rating, Ragweed, Common” value [15, 27] was 0. For the same compound, the “Plant response rating (0 to 100), Ragweed, Common” value ([15]; preemergence, Rate 500 g/ha) was 0, the “Plant response rating, Ragweed, Common” value [15, 28] was 0 and the “Plant response rating (0 to 100), Sunflower” value ([16]; Rate 500 g/ha) was 10. For the same compound, the “Plant response rating, Crabgrass” value [17, 25] was 40, the “Plant response rating, Crabgrass” value [17, 26] was 90 and the “Plant response rating, Cocklebur” value [18, 25] was 20. The “Plant response rating, Cocklebur” value [18, 26] was 80, the “Plant response rating, Lambsquarters” value [19, 26] was 100 and the “Plant response rating, Wild Oat” value [20, 26] was 0.
